Measurements as given in patent publication US20210386756A1, “IMPROVEMENTS FOR PERFORMING AND FACILITATING THE RECOVERY AFTER HEMATOPOIETIC STEM CELL TRANSPLANTATION” (Centro de Investigaciones Energéticas, Medioambientales y …, priority 2018, published 2021).

Tests used:
[1] = molecular target: T1, sex hormone-binding globulin (SHBG) (Homo sapiens, UniProt P04278); details: cited from earlier work
T1 sequence (P04278 30-402): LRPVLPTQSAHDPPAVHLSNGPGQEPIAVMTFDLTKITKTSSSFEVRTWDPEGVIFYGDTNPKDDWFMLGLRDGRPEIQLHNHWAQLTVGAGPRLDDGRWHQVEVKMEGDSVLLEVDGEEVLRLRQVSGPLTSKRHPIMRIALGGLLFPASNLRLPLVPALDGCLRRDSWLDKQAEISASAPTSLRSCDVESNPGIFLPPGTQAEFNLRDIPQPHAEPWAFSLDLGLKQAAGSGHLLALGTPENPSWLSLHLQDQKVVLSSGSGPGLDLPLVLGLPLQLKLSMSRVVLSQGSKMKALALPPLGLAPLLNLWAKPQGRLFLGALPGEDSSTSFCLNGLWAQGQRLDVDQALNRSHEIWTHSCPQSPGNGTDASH

[2] = test system: hCD34+ hematopoietic progenitors; assay: In vitro toxicity of natural estrogens for hematopoietic progenitors (hCD34+ culture, FACS subsets); format: cell-based, human; details: for % CD34+/CD38− / % HSC / % MLP / % MPP: four days culture
Method: FIG. 9 relates the effect of different concentration of E1, E2, E3 and E4 in human hematopoietic progenitors. Human hematopoietic progenitors were culture in phenol red free media supplemented with 100 ng/mL SCF, 100 ng/ml FLT3L and 100 ng/ml TPO and different concentration of E1, E2, E3 and E4 (from 10 nM to 500 μM). FIG. 9A represents the fold increase of the number of hematopoietic cells after four days in culture. FIG. 9B indicates the total number of primitive hematopoietic progenitors (CD34^+/CD38^−) present in the culture, extrapolated from number of cells and the frequency of this population analyzed by FACS. […] Grey dashed lines point the value of control group, and red dashed lines indicate the initial values at day 0. (Kruskal-Wallis test; P<0.05, data from four independent experiments).
To assess the toxicity of the natural estrogens (E1, E2, E3 and E4) for hematopoietic progenitors, in vitro studies were performed. 5×10^4 hCD34^+ were cultured in a phenol red-free media, X-Vivo 20 (Lonza), in presence of 100 ng/ml SCF, 100 ng/ml FLT3L, 100 ng/ml TPO, 0.5% PS, 1% Glutamax (Thermofisher) and different concentrations of E1, E2, E3 or E4 (from 10 nM to 500 μM). Cell proliferation and immunophenotype of different hematopoietic subsets (CD34^+/CD38^−, HSC [CD34^+/CD38^−/CD45RA^−/CD90^+], Multipotent Progenitors [MPP, CD34^+/CD38^−/CD45RA^−/CD90^−], Multipotent Lymphoid Progenitors [MLP, CD34^+/CD38^−/CD45RA^+] were evaluated at day 0 and four days after culture.

[3] = test system: mouse MSCs (mCD140a+) and vascular endothelial cells (mCD144+); assay: Mouse BM niche analysis (MSCs and vascular endothelial cells) after transplant and estrogen treatment; format: in vivo; details: four months after transplant, versus vehicle-treated animals
Method: FIG. 12 refers to modulation of the hematopoietic niche by estrogens. […] FIG. 12B refers to the relative mouse vascular endothelial cells (mCD144+ or VE-Cadherin+) in the BM of the male mice transplanted with 5×10^4 hCB-CD34+ cells analyzed 4 months after transplantation. […] Data are presented by dots and box-plots that represent the interquartile range (p75, upper edge; p25, lower edge; p50, midline; p95, line above the box; and p5, line below the box). Significance was analyzed by Mann-Whitney U test and represented by **P<0.01.
To provide a further insight into the positive impact of estrogens on promoting human hematopoietic engraftment, we examined mesenchymal and vascular endotelial compartments of the mouse BM niche four months after being transplanted and treated with E2 (estradiol) or E4 (estetrol). The percentage of mouse MSCs (mCD140a+, also called Pdgfra+) and vascular endothelial cells (mCD144+, also called VE-Cadherin+) was analyzed in the non-hematopoietic compartment ([…]).

human cord blood CD34+ = assay: Human engraftment in female NSG mice transplanted with a limited CD34+ cell dose (5×10^3); format: in vivo, mouse; details: low dose 5×10^3 hCD34+, mean +/− SEM
Excerpt: FIG. 7A indicates human hematopoietic reconstitution after four months. […] However, in spite of this presence of endogenous estrogens, the human engraftment in female recipients was increased after E2 and more importantly after E4 treatment. FIG. 7B relates the presence of primitive hematopoietic progenitors was higher in the female mice treated with estrogens, which indicated the quality of the reconstitution. (Kruskal-Wallis test; P<0.05, 4 mice per group). […] Three-four months later, the animals were sacrificed and the human hematopoietic engraftment was analyzed by FACS. Human hematopoietic population was identified as the cells positive for hCD45-APC-Cy7 (Biolegend) and negative for mouse CD45.1-PE (Biolegend). To assess whether estrogen can improve hematopoietic reconstitution in female recipients, female NSG were irradiated and transplanted by a low doses of human cord blood CD34^+ (5×10^3 hCD34^+). The human engraftment was analyzed as described in Example 1. […] However, in spite of this presence of endogenous estrogens, the human engraftment in female recipients was increased after E2 and more importantly after E4 treatment.

## C[C@]12CC[C@@H]3c4ccc(O)cc4CC[C@H]3[C@@H]1[C@@H](O)[C@@H](O)[C@@H]2O [E4, estetrol]
[1]
  binding by SHBG: not bound
[2]; 10 nM to 500 μM, in vitro
  toxicity for hematopoietic progenitor subpopulations: less toxic
[2]; 10 nM
  % CD34+/CD38−: 13.35 ± 0.87%
  % HSC: 1.75 ± 0.13%
  % MLP: 4.29 ± 0.44%
  % MPP: 4.39 ± 0.25%
[2]; 100 nM
  % CD34+/CD38−: 12.60 ± 0.68%
  % HSC: 1.67 ± 0.12%
  % MLP: 4.42 ± 0.16%
  % MPP: 4.35 ± 0.56%
[2]; 1 μM
  % CD34+/CD38−: 12.08 ± 1.22%
  % HSC: 1.86 ± 0.20%
  % MLP: 3.48 ± 0.73%
  % MPP: 4.89 ± 0.30%
[2]; 10 μM
  % CD34+/CD38−: 13.62 ± 0.54%
  % HSC: 2.03 ± 0.04%
  % MLP: 4.30 ± 0.29%
  % MPP: 4.57 ± 0.35%
[2]; 100 μM
  % CD34+/CD38−: 17.26 ± 2.24%
  % HSC: 3.67 ± 0.65%
  % MLP: 5.66 ± 1.49%
  % MPP: 3.85 ± 0.32%
[2]; 500 μM
  % CD34+/CD38−: 10.82 ± 2.79%
  % HSC: 3.76 ± 1.25%
  % MLP: 0.89 ± 0.18%
  % MPP: 3.11 ± 1.20%
[3]
  number of mCD140a+ cells (mouse MSCs) in BM: increased
Human cord blood CD34+
  Percentage of hematopoietic stem cells (hCD34+/hCD38−) in the human hematopoietic population: 0.39 +/− 0.08 (n = 3) %
  Percentage of human hematopoietic reconstitution: 40.80 +/− 4.58 (n = 3) %
